Test results from article PMC3612826, “Structural-Functional Analysis of 2,1,3-Benzoxadiazoles and Their N-oxides As HIV-1 Integrase Inhibitors” (Acta Naturae, 2013).

Legend:
wild-type HIV-1 IN = wild-type HIV-1 IN (Human immunodeficiency virus type 1 group M subtype B, UniProt P12497); test: biochemical; type: biochemical
recombinant HIV-1 IN = recombinant HIV-1 IN (Human immunodeficiency virus type 1 group M subtype B, UniProt P12497); test: biochemical; type: biochemical

| SMILES | IC50 (wild-type HIV-1 IN) [µM] | Inhibitory potential, strand transfer (wild-type HIV-1 IN) | IC50 (recombinant HIV-1 IN) [µM] | Inhibitory potential, 3'-processing (recombinant HIV-1 IN) |
| --- | --- | --- | --- | --- |
| [O-][n+]1onc2ccccc21 [Compound 1, unsubstituted BFX] | > 1000 | exhibited no inhibitory potential | > 1000 | exhibited no inhibitory potential |
| O=[N+]([O-])c1cc([N+](=O)[O-])c2no[n+]([O-])c2c1-[n+]1ccccc1 [Compound 24] | 80 ± 20 |  | 75 ± 15 |  |
